According to patent US4452812A, “Organic complex of platinum, its preparation and its use for treating malignant tumors” (Sanofi, priority 1980, dated 1984):

Experiments:
[1] = test system: renal and hepatic parenchyma; assay: Renal and hepatic toxicity; type: in vivo, mouse (Swiss female)
Procedure: It was thus of interest to compare the effects of the novel compound of the invention with those of the already known compounds listed above on the kidney and the liver, i.e. the organs in which the greatest amount of platinum accumulates.
Swiss female mice (Evic-Ceba, Bordeaux) of 20 to 22 g were treated by intraperitoneal route D0 and then sacrificed on D1, D4 and D10.
Slices 5 microns thick were coloured with hemalun eosine stain.

L 1210 cells = assay: Cytotoxicity on L 1210 cells in culture; type: cell-based; conditions: read-out: ID50 (reduces by 50% the rate of growth of the cells); usually 24 to 48 hours contact
leukemia L 1210 = assay: Anti-tumour activity, leukemia L 1210, i.p. graft, i.p. treatment
Procedure: […] females (CNRS, Orleans) of 20 to 22 g
(a) i.p. graft--i.p. treatment
10^5 cells were grafted intraperitoneally on D0 and intraperitoneal treatment was carried out 24 hours later, D1, in one single injection.
PHD and PHM were suspended in a 4% Klucel (hydroxy propyl cellulose) solution (the word "Klucel" is a registered trademark of Hercules Incorporated, Delaware, U.S.A.).
The solutions of these compounds were prepared extemporaneously. The increase in life span, ILS (%), were calculated in comparison with the controls by the following formula: [formula] Deaths were recorded until day 30 for L 1210 tumour and until day 60 for S180 tumour.

abdominal viscera = assay: Peritonitis (adhesion and hardening of abdominal viscera); type: in vivo, mouse
Procedure: (§1) The solutions of these compounds were prepared extemporaneously.
As discussed above this problem seems to be linked to the presence of the 1,2-diaminocyclohexane ligand.

sarcoma S 180 = assay: Anti-tumour activity, sarcoma S 180 ascite, i.p. graft, i.p. treatment; type: in vivo, mouse (Swiss female); conditions: for ILS: single i.p. on D1
Procedure: Swiss female mice (Evic-Ceba, Bordeaux) of 20 to 22 g
10^6 cells intraperitoneally grafted on D0
intraperitoneal treatment 24 hours later, D1, in one single injection.
as §1

mouse = assay: Acute toxicity in the mouse; type: in vivo, mouse (Swiss female); conditions: mouse, one single injection
Procedure: Acute toxicity, one single injection of the compound, was measured using Swiss female mice (Evic-Ceba, Bordeaux) of 21 to 23 g. and Sprague-Dawley rats. Ten animals were treated for each dose studied.

[2] = Stability in sodium chloride solution; type: physicochemical; conditions: 9% sodium chloride
Procedure: This compound has an exceptionally high degree of solubility.
as §1

DNA = assay: Platinum fixed on DNA of L 1210 cells in vivo; parameters: species or system mouse (DBA/2); conditions: PDD 9 mg/kg, PHIC 150 mg/kg; two hours after treatment on D3
Procedure: DBA/2 mice received 10^6 L 1210 cells on D0 and were treated three days later with an amount of platinum compound equal to the LD0 in the healthy mouse. Two hours after treatment on D3, the animals were sacrificed. […] Platinum was monitored by atomic absorption for whole cells and also on the DNA which was purified by phenol extraction. […] Under these conditions, one fixed platinum atom per 3000 nucleotides was found, i.e. a total of 1% of the amount which penetrated the cells was complexed to DNA. […] 10^-16 of platinum per cell.

[3] = L 1210, 4 mg/kg i.p. on D1, day 30
[4] = S 180, 1 mg/kg i.p. on D1, day 60
[5] = S 180, 2 mg/kg i.p. on D1, day 60
[6] = S 180, 4 mg/kg i.p. on D1, day 60
[7] = S 180, 5 mg/kg i.p. on D1, day 60
[8] = S 180, 10 mg/kg i.p. on D1, day 60
[9] = S 180, 50 mg/kg i.p. on D1, day 60

## NC1CCCCC1N.[Cl][Pt][Cl] (stereo not drawn) [PHD, CIS-DICHLORO(1,2-DIAMINOCYCLOHEXANE) PLATINUM (II)]
[1]; mouse, in vivo, ip
  renal and hepatic alterations: vascular alterations without any hyaline casts
L 1210 cells
  IC50: 130 nM
Leukemia L 1210; 1 mg/kg, single i.p. on D1
  ILS: 5%
Leukemia L 1210; 2 mg/kg, single i.p. on D1
  ILS: 49%
Leukemia L 1210; 4 mg/kg, single i.p. on D1
  ILS: 65%
Leukemia L 1210; L 1210, 1 mg/kg i.p. on D1, day 30
  Survivals: 0%
Leukemia L 1210; L 1210, 2 mg/kg i.p. on D1, day 30
  Survivals: 0%
Leukemia L 1210; [3]
  Survivals: 0%
Abdominal viscera; mouse, in vivo, ip
  occurrence of peritonitis in relation to the 1,2-diaminocyclohexane ligand: seems to be correlated with the presence of 1,2-diaminocyclohexane
Sarcoma S 180; 1 mg/kg
  ILS: 100%
Sarcoma S 180; 2 mg/kg
  ILS: 128%
Sarcoma S 180; 4 mg/kg
  ILS: 127%
Sarcoma S 180; [4]
  Survivals: 0%
Sarcoma S 180; [5]
  Survivals: 20%
Sarcoma S 180; [6]
  Survivals: 10%
mouse
  LD0 (maximum nonlethal dose): 7 mg/kg

## cis-(t-aconitato) (1,2-diaminocyclohexane) platinum (II) [PHTA, reference compound]
Leukemia L 1210; 500 mg/kg, single injection on D1
  ILS: 13%
mouse
  LD0 (maximum nonlethal dose): > 500 mg/kg

## NC1CCCCC1N.O.O=S(=O)([O-])[O-].[Pt+2] (stereo not drawn) [PHS, cis-sulfatomonoaquo(1,2 diaminocyclohexane) platinum (II)]
[1]; i.p. at ~LD0 (mg/kg): PDD 8, PAC 100, PHM 50, PHD 4, PHS 5, PHC 120, PHIC 150, D1, D4, D10
  renal and hepatic alterations: vascular dilation and proximal distorted tubules
L 1210 cells
  IC50: 190 nM
Leukemia L 1210; 5 mg/kg, single i.p. on D1
  ILS: 112%
Leukemia L 1210; L 1210, 5 mg/kg i.p. on D1, day 30
  Survivals: 40%
Abdominal viscera; i.p.
  occurrence of peritonitis in relation to the 1,2-diaminocyclohexane ligand: seems to be correlated with the presence of 1,2-diaminocyclohexane
Sarcoma S 180; 0.5 mg/kg
  ILS: 4%
Sarcoma S 180; 1 mg/kg
  ILS: 10%
Sarcoma S 180; 2 mg/kg
  ILS: 25%
Sarcoma S 180; 4 mg/kg
  ILS: 47%
Sarcoma S 180; 5 mg/kg
  ILS: 112%
Sarcoma S 180; S 180, 0.5 mg/kg i.p. on D1, day 60
  Survivals: 0%
Sarcoma S 180; [4]
  Survivals: 0%
Sarcoma S 180; [5]
  Survivals: 0%
Sarcoma S 180; [6]
  Survivals: 0%
Sarcoma S 180; [7]
  Survivals: 10%
[2]
  change to chlorinated derivative in sodium chloride solution: almost instantaneously to the formation of a yellow insoluble chlorinated compound

## N.N.[Cl][Pt][Cl] [PDD, cis-dichlorodiammine platinum (II)]
L 1210 cells
  IC50: 2330 nM
Leukemia L 1210; 2 mg/kg, single i.p. on D1
  ILS: 28%
Leukemia L 1210; 4 mg/kg, single i.p. on D1
  ILS: 52%
Leukemia L 1210; 6 mg/kg, single i.p. on D1
  ILS: 75%
Leukemia L 1210; 8 mg/kg, single i.p. on D1
  ILS: 106%
Leukemia L 1210; [3]
  Survivals: 0%
Leukemia L 1210; L 1210, 6 mg/kg i.p. on D1, day 30
  Survivals: 0%
Leukemia L 1210; L 1210, 8 mg/kg i.p. on D1, day 30
  Survivals: 0%
Leukemia L 1210; summary for L 1210 and S 180
  Surviving animals having received L 1210 leukaemia and S 180 sarcoma: No
DNA
  Number of fixed platinum atoms per nucleotide on DNA: 1/30000
  amount that penetrated the cells which was complexed to DNA: 1%
  nucleotides per one fixed platinum atom: 3000 nucleotides
Abdominal viscera; mouse, in vivo, ip
  occurrence of peritonitis in relation to the 1,2-diaminocyclohexane ligand: never observed
Sarcoma S 180; 4 mg/kg
  ILS: 41%
Sarcoma S 180; 8 mg/kg
  ILS: 65%
Sarcoma S 180; [6]
  Survivals: 0%
Sarcoma S 180; S 180, 8 mg/kg i.p. on D1, day 60
  Survivals: 0%

## NC1CCCCC1N.O=C([O-])CC(=O)[O-].[Pt+2] (stereo not drawn) [PHM, cis-malonato (1,2 diaminocyclohexane) platinum (II)]
[1]; mouse, in vivo, ip
  renal and hepatic alterations: These alterations were observed
L 1210 cells
  IC50: 390 nM
Leukemia L 1210; 50 mg/kg, single i.p. on D1
  ILS: 103%
Leukemia L 1210; L 1210, 50 mg/kg i.p. on D1, day 30
  Survivals: 10%
Abdominal viscera; mouse, in vivo, ip
  occurrence of peritonitis in relation to the 1,2-diaminocyclohexane ligand: seems to be correlated with the presence of 1,2-diaminocyclohexane
  peritonitis: most of the mice reaching 30 days of survival treatment with PHM and PHIC developed peritonitis
Sarcoma S 180; 5 mg/kg
  ILS: 25%
Sarcoma S 180; 10 mg/kg
  ILS: 36%
Sarcoma S 180; 20 mg/kg
  ILS: 44%
Sarcoma S 180; 40 mg/kg
  ILS: 60%
Sarcoma S 180; 50 mg/kg
  ILS: 96%
Sarcoma S 180; [7]
  Survivals: 0%
Sarcoma S 180; [8]
  Survivals: 0%
Sarcoma S 180; S 180, 20 mg/kg i.p. on D1, day 60
  Survivals: 0%
Sarcoma S 180; S 180, 40 mg/kg i.p. on D1, day 60
  Survivals: 0%
Sarcoma S 180; [9]
  Survivals: 0%

## cis-citratodiammineplatinum (II) [PAC]
[1]; mouse, in vivo, ip
  renal and hepatic alterations: These alterations were observed
Leukemia L 1210; 100 mg/kg, single injection on D1
  ILS: 17%
Abdominal viscera; mouse, in vivo, ip
  occurrence of peritonitis in relation to the 1,2-diaminocyclohexane ligand: never observed
mouse
  LD0 (maximum nonlethal dose): 125 mg/kg

## cis-citrato (1,2-diaminocyclohexane) platinum (II) [PHC]
[1]; mouse, in vivo, ip
  renal and hepatic alterations: did not provoke any significant alterations
Leukemia L 1210; 120 mg/kg, single i.p. on D1, with 5 mice only
  ILS: 90%
Leukemia L 1210; L 1210, 120 mg/kg i.p. on D1, day 30
  Survivals: 0%
Abdominal viscera; mouse, in vivo, ip
  occurrence of peritonitis in relation to the 1,2-diaminocyclohexane ligand: seems to be correlated with the presence of 1,2-diaminocyclohexane
Sarcoma S 180; 10 mg/kg
  ILS: 20%
Sarcoma S 180; 25 mg/kg
  ILS: 124%
Sarcoma S 180; 50 mg/kg
  ILS: 121%
Sarcoma S 180; [8]
  Survivals: 0%
Sarcoma S 180; S 180, 25 mg/kg i.p. on D1, day 60
  Survivals: 20%
Sarcoma S 180; [9]
  Survivals: 30%

## cis-isocitratodiammineplatinum(II) [PAIC]
Leukemia L 1210; 75 mg/kg, single injection on D1
  ILS: 74%
Abdominal viscera; mouse, in vivo, ip
  occurrence of peritonitis in relation to the 1,2-diaminocyclohexane ligand: never observed
mouse
  LD0 (maximum nonlethal dose): 75 mg/kg
